From patent US11498929B2, “Chromenopyrimidine derivatives as phosphatidylinsitol phosphate kinase inhibitors” (Hibercell, Inc., priority 2019, dated 2022)

Legend:
PIP4K2A = molecular target: T1, PIP4K2A (Homo sapiens, UniProt P48426); assay: Kinase Assay - PIP4K2 A (inhibition of PIP4K2 A kinase assay); assay type: biochemical; conditions: compounds listed under IC50 bin headings
T1 construct: GST; made in house; host or cells: E. coli
T1 sequence (P48426 1-406): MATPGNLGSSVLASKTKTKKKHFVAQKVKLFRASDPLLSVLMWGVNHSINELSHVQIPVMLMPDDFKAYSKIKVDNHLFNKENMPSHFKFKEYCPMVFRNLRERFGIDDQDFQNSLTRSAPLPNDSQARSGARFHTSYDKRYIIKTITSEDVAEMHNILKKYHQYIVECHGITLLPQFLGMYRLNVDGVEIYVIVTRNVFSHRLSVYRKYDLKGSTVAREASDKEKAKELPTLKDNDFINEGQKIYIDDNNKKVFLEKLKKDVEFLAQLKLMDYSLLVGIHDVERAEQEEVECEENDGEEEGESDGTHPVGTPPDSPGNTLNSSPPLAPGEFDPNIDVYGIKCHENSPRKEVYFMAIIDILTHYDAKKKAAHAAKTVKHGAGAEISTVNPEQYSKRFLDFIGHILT
Description: Dilution series of the compounds were prepared in DMSO at 100 times the final assay concentration (n1=n0/3 in 10 points). The compounds were further diluted to three times the assay concentration in assay buffer (20 mM MOPS pH 7.2, 25 mM magnesium chloride, 0.005% Tween 20). 6 μL of the diluted compounds were added to a 384 well assay plate followed by 9 μL of a mix consisting of 4 nM PIP4K2A (full length protein, SignalChem) and 100 μM PI(5)P diC8 (Tebu-Bio). Enzyme and compounds were pre-incubated at room temperature for 15 minutes.
Then 3 μL of a solution containing 60 μM ATP (Promega) in assay buffer was added to the wells containing compound and enzyme and mixing was performed by pipetting several times. The reaction was incubated at room temperature for 1 h. Then 18 μL of ADP-Glo™ Reagent (Promega) was added to stop the kinase reaction and deplete the unconsumed ATP, mixing was performed by pipetting several times. The plate was incubated at room temperature for 40 minutes before addition of 36 μL of Kinase Detection Reagent (Promega) to convert ADP to ATP and introduce luciferase and luciferin to detect ATP. The reaction was incubated at room temperature for 40 minutes before the luminescence was measured in a in a Victor 3V 1420 multilabel counter (Perkin Elmer).
Percent inhibition of the compounds as compared to dimethyl sulfoxide treated control samples was calculated. Compound concentration versus percent inhibition were fitted to generate IC50 values. […]

[1] = molecular target: T2, PIP4K2 B (GST-tagged PIP4KtypeIIB) (Homo sapiens, UniProt P78356); assay: Kinase Assay - PIP4K2 B (inhibition of PIP4K2 B kinase assay); assay type: biochemical; conditions: compounds listed under IC50 bin headings
T2 construct: GST; made in house; host or cells: E. coli
T2 sequence (P78356 1-416): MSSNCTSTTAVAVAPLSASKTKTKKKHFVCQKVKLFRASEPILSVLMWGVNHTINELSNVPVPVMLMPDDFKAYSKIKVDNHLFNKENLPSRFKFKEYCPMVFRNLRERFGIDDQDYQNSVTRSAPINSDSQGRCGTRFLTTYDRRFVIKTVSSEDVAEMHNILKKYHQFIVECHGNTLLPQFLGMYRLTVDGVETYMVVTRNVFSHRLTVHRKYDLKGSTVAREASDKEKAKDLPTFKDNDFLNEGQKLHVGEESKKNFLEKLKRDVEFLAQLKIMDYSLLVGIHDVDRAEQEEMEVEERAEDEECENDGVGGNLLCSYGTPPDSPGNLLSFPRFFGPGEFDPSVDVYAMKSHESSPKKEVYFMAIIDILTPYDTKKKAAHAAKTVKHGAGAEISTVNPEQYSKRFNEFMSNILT
Excerpt: GST tagged PIP4KtypeIIA and B enzymes were overexpressed in E. Coli and purified to >80% homogeneity. Phosphatidyl inositol-5-phosphate (PI5P, Cat. #850152, Avanti Polar Lipids Inc.) was used as the lipid substrate and phosphatidyl ethanolamine (DOPE 18:1, Cat. #850725, Avanti Polar Lipids Inc.) was used as the carrier lipid for assays. Ultrapure ATP and GTP was purchased from Bellbrooke Labs. ADP Glo reagents were obtained from Promega. Transcreener FI reagent was obtained from Bellbrooke labs.
GST-tagged PIP4KtypeIIB (3.4 uL, 2.77 mg/mL) was diluted to 5 mL using HNE buffer to yield 5× enzyme stock (25 nM)
Lipid Preparation: In a 10 mL pyrex glass vial, 1 ug of PI5P and 1 ug of DOPE were suspended in 2.5 mL of HEPES buffer mix and 2.5 mL of H:E buffer. The contents were mixed and sonicated for 3 min to yield a translucent lipid stock.
Compound Preparation: Compounds were stored as 5 mM stocks in neat DMSO as room temperature in glass vials. 5 mM stocks were diluted to 2 mM and then serially diluted (3×) in neat DMSO in 96 well polypropylene plates. From the serially diluted stocks, 3 uL was delivered into 250 uL of 25% DMSO (in water) to generate 5× compound stocks. Typically, the highest compound conc. was 24 uM.
The assay volume was kept at 25 uL. To each well of the reaction plate, 10 uL of lipid stock (1:1 ratio PI5P:DOPE) was delivered. This was followed by the addition of 5 uL of compound in 25% DMSO. Then, to each well, 5 uL of 25 nM (5×) typeIIB enzyme was delivered. The contents were mixed well and incubated for 1 h at 27 C. After 1 h, reaction was initiated by adding 5 uL of 500 uM GTP and the contents were mixed well with a multi-channel pipetteman. The final concentration of the reagents are as follows: 50 mM HEPES, pH 7.3, 10 mM MgCl2, 20 mM NaCl, 0.01% v/v triton-X100, 5% DMSO, 100 uM GTP, 80 uM (2 ug) PI5P, 2 ug DOPE, and 5 nM PIP4KIIB Typically, the highest conc. of compounds was 4.8 uM and the lowest conc. was 0.
After 2 h, the reaction was quenched by adding 25 uL of transcreener FI reagent. The contents were incubated at RT for 1 h and the Fluorescence (Ex:584 Em: 623) was read using Molecular Devices Paradigm plate reader. […] The blanks were averaged and subtracted from all other wells. Using a calibration curve, RFU was converted to uM GDP (product). IC50 was calculated by plotting the residual activity (expressed as % No inhibitor control) vs. log [Inh. conc.]

MOLM-16 = MOLM-16 EC50 assay; assay type: cell-based; conditions: MOLM16

CNC(=O)N1CCOc2ncc(Nc3ncc4c(n3)C(C)(C)Oc3cc(-c5nocc5C)ccc3-4)cc21 [Compound 11, 7-{[5,5-dimethyl-8-(4-methyl-1,2-oxazol-3-yl)-5H-chromeno[3,4-d]pyrimidin-3-yl]amino}-N-methyl-1H,2H,3H-pyrido[2,3-b][1,4]oxazine-1-carboxamide] was tested, and the IC50 (PIP4K2A) was ≤ 1 nM, the IC50 [1] was 1 to 10 nM and the EC50 (MOLM-16) was 100 to 1000 nM.
For CN(C)C1CCN(c2cncc(Nc3ncc4c(n3)C(C)(C)Oc3cc(N5CCCC5=O)ccc3-4)c2)CC1 [Compound 25, 1-[3-({5-[4-(dimethylamino)piperidin-1-yl]pyridin-3-yl}amino)-5,5-dimethyl-5H-chromeno[3,4-d]pyrimidin-8-yl]pyrrolidin-2-one], the IC50 (PIP4K2A) was 1 to 10 nM, the IC50 [1] was 10 to 100 nM and the EC50 (MOLM-16) was 10 to 100 nM.
With Cc1cnnn1-c1ccc2c(c1)OC(C)(C)c1nc(Nc3cnc4c(c3)N(C(=O)NC3CC3)CCO4)ncc1-2 [Compound 9, N-cyclopropyl-7-{[5,5-dimethyl-8-(5-methyl-1H-1,2,3-triazol-1-yl)-5H-chromeno[3,4-d]pyrimidin-3-yl]amino}-1H,2H,3H-pyrido[2,3-b][1,4]oxazine-1-carboxamide] the IC50 (PIP4K2A) was ≤ 1 nM, the IC50 [1] was 1 to 10 nM and the EC50 (MOLM-16) was 100 to 1000 nM.
For C[C@@H]1CCC(=O)N1c1ccc2c(c1)OC(C)(C)c1nc(Nc3cnc4c(c3)N(C(=O)NC3CC3)CCO4)ncc1-2 [Compound 20, N-cyclopropyl-7-({5,5-dimethyl-8-[(2R)-2-methyl-5-oxopyrrolidin-1-yl]-5H-chromeno[3,4-d]pyrimidin-3-yl}amino)-1H,2H,3H-pyrido[2,3-b][1,4]oxazine-1-carboxamide], the IC50 (PIP4K2A) was 1 to 10 nM and the IC50 [1] was 1 to 10 nM.
CC1(C)Oc2cc(N3CCCC3=O)ccc2-c2cnc(Nc3cnc4c(c3)N(C(=O)NC3CC3)CCO4)nc21 [Compound 23, N-cyclopropyl-7-{[5,5-dimethyl-8-(2-oxopyrrolidin-1-yl)-5H-chromeno[3,4-d]pyrimidin-3-yl]amino}-1H,2H,3H-pyrido[2,3-b][1,4]oxazine-1-carboxamide] was tested, and the IC50 (PIP4K2A) was 1 to 10 nM, the IC50 [1] was 10 to 100 nM and the EC50 (MOLM-16) was 10 to 100 nM.
For CCN(CC)CCOC(=O)N1CCOc2ncc(Nc3ncc4c(n3)C(C)(C)Oc3cc(N5CCCC5=O)ccc3-4)cc21 [Compound 21, 2-(diethylamino)ethyl 7-{[5,5-dimethyl-8-(2-oxopyrrolidin-1-yl)-5H-chromeno[3,4-d]pyrimidin-3-yl]amino}-1H,2H,3H-pyrido[2,3-b][1,4]oxazine-1-carboxylate], the IC50 (PIP4K2A) was 1 to 10 nM and the IC50 [1] was 10 to 100 nM.
In the case of CC1(C)Oc2cc(N3CCCC3=O)ccc2-c2cnc(Nc3cncc(CN4CC(F)C4)c3)nc21 [Compound 28, 1-[3-({5-[(3-fluoroazetidin-1-yl)methyl]pyridin-3-yl}amino)-5,5-dimethyl-5H-chromeno[3,4-d]pyrimidin-8-yl]pyrrolidin-2-one], the IC50 (PIP4K2A) is reported as 1 to 10 nM and the IC50 [1] is reported as 100 to 1000 nM.
With Cc1cnnn1-c1ccc2c(c1)OC(C)(C)c1nc(Nc3cncc(N4CCN(CCO)CC4)c3)ncc1-2 [Compound 6, 2-[4-(5-{[5,5-dimethyl-8-(5-methyl-1H-1,2,3-triazol-1-yl)-5H-chromeno[3,4-d]pyrimidin-3-yl]amino}pyridin-3-yl)piperazin-1-yl]ethan-1-ol] the IC50 (PIP4K2A) was ≤ 1 nM, the IC50 [1] was 1 to 10 nM and the EC50 (MOLM-16) was 100 to 1000 nM.
Compound CC1(C)Oc2cc(N3CCCC3=O)ccc2-c2cnc(Nc3cncc(OCCN4CC(F)C4)c3)nc21 [Compound 30, 1-[3-({5-[2-(3-fluoroazetidin-1-yl)ethoxy]pyridin-3-yl}amino)-5,5-dimethyl-5H-chromeno[3,4-d]pyrimidin-8-yl]pyrrolidin-2-one] has an IC50 (PIP4K2A) of 10 to 100 nM and an IC50 [1] of 100 to 1000 nM.
Compound CCN(CC)CCN(C)c1cncc(Nc2ncc3c(n2)C(C)(C)Oc2cc(-n4nncc4C)ccc2-3)c1 [Compound 27, N3-[2-(diethylamino)ethyl]-N5-[5,5-dimethyl-8-(5-methyl-1H-1,2,3-triazol-1-yl)-5H-chromeno[3,4-d]pyrimidin-3-yl]-N3-methylpyridine-3,5-diamine] has an IC50 (PIP4K2A) of 1 to 10 nM and an EC50 (MOLM-16) of 100 to 1000 nM.
With CC1(C)Oc2cc(N3C(=O)CCC34CC4)ccc2-c2cnc(Nc3cccnc3)nc21 [Compound 24, 4-{5,5-dimethyl-3-[(pyridin-3-yl)amino]-5H-chromeno[3,4-d]pyrimidin-8-yl}-4-azaspiro[2.4]heptan-5-one] the IC50 (PIP4K2A) was 1 to 10 nM and the EC50 (MOLM-16) was 100 to 1000 nM.
For CNC(=O)N1CCOc2ncc(Nc3ncc4c(n3)C(C)(C)Oc3cc(N5C(=O)CC[C@H]5C)ccc3-4)cc21 [Compound 18, 7-({5,5-dimethyl-8-[(2R)-2-methyl-5-oxopyrrolidin-1-yl]-5H-chromeno[3,4-d]pyrimidin-3-yl}amino)-N-methyl-1H,2H,3H-pyrido[2,3-b][1,4]oxazine-1-carboxamide], the IC50 (PIP4K2A) was ≤ 1 nM and the IC50 [1] was 1 to 10 nM.
Work on CC1(C)Oc2cc(N3CCCC3=O)ccc2-c2cnc(Nc3cncc(CNCCS(C)(=O)=O)c3)nc21 [Compound 31, 1-{3-[(5-{[(2-methanesulfonylethyl)amino]methyl}pyridin-3-yl)amino]-5,5-dimethyl-5H-chromeno[3,4-d]pyrimidin-8-yl}pyrrolidin-2-one] yielded an IC50 (PIP4K2A) of 10 to 100 nM, an IC50 [1] of 10 to 100 nM and an EC50 (MOLM-16) of 10 to 100 nM.
CN1CCN(CC(=O)N2CCOc3ncc(Nc4ncc5c(n4)C(C)(C)Oc4cc(N6CCCC6=O)ccc4-5)cc32)CC1 [Compound 22, 1-[5,5-dimethyl-3-({1-[2-(4-methylpiperazin-1-yl)acetyl]-1H,2H,3H-pyrido[2,3-b][1,4]oxazin-7-yl}amino)-5H-chromeno[3,4-d]pyrimidin-8-yl]pyrrolidin-2-one] was tested, and the IC50 (PIP4K2A) was 1 to 10 nM, the IC50 [1] was 10 to 100 nM and the EC50 (MOLM-16) was 10 to 100 nM.
CNCCOc1cncc(Nc2ncc3c(n2)C(C)(C)Oc2cc(N4CCCC4=O)ccc2-3)c1 [Compound 34, 1-[5,5-dimethyl-3-({5-[2-(methylamino)ethoxy]pyridin-3-yl}amino)-5H-chromeno[3,4-d]pyrimidin-8-yl]pyrrolidin-2-one] gave an IC50 (PIP4K2A) of 10 to 100 nM and an EC50 (MOLM-16) of 10 to 100 nM.
